In article PMC10512030, “Prolidase-proline oxidase axis is engaged in apoptosis induction by birch buds flavonol santin in endometrial adenocarcinoma cell line” (Frontiers in Molecular Biosciences, 2023):
Where two headings read alike, the source gives them in different places.

Tests used:
[1] = test system: normal fibroblasts (dermal fibroblasts CCD25Sk); experiment: Cell viability neutral red uptake assay, fibroblasts; assay type: cell-based, human; conditions: read-out: IC50 values ± SD in neutral red uptake assay
[2] = test system: endometrial adenocarcinoma Ishikawa cells; experiment: Cell viability neutral red uptake assay, Ishikawa; assay type: cell-based, human; conditions: read-out: IC50 values ± SD in neutral red uptake assay
[3] = test system: normal fibroblasts (dermal fibroblasts CCD25Sk); experiment: Cell viability MTT assay, fibroblasts; assay type: cell-based, human; conditions: for IC50: Fibroblasts, read-out: IC50 values ± SD in MTT assay
[4] = test system: cervical adenocarcinoma HeLa cells; experiment: Cell viability MTT assay, HeLa; assay type: cell-based, human
[5] = test system: endometrial adenocarcinoma Ishikawa cells; experiment: Cell viability MTT assay, Ishikawa; assay type: cell-based, human; conditions: read-out: IC50 values ± SD in MTT assay
[6] = test system: cervical adenocarcinoma HeLa cells; experiment: Cell viability neutral red uptake assay, HeLa; assay type: cell-based, human; conditions: read-out: IC50 values ± SD in neutral red uptake assay
[7] = test system: breast epithelial cells MCF 10A; experiment: Cell viability MTT assay, MCF 10A; assay type: cell-based, human; conditions: 48 h
[8] = test system: cervical adenocarcinoma HeLa cells; conditions: cited from earlier work; for IC50: HeLa, ref Souza et al., 2017, read-out: IC50 determined by MTT assay
[9] = Homo sapiens, HeLa, 24 h, HeLa, 24 h, read-out: IC50 values ± SD in MTT assay
[10] = Homo sapiens, HeLa, 48 h, HeLa, 48 h, read-out: IC50 values ± SD in MTT assay
[11] = HeLa, 24 h, read-out: IC50 values ± SD in MTT assay
[12] = HeLa, 48 h, read-out: IC50 values ± SD in MTT assay

Row | SMILES | IC50 ([1]; Homo sapiens, Fibroblast, 24 h) [µM] | IC50 ([1]; Homo sapiens, Fibroblast, 48 h) [µM] | IC50 ([2]; Homo sapiens, 24 h) [µM] | IC50 ([2]; Homo sapiens, 48 h) [µM] | IC50 ([3]; Homo sapiens, Fibroblast, 24 h) [µM] | IC50 ([3]; Homo sapiens, Fibroblast, 48 h) [µM] | IC50 [4, 9] [µM] | IC50 [4, 10] [µM] | IC50 ([5]; Homo sapiens, 24 h) [µM] | IC50 ([5]; Homo sapiens, 48 h) [µM] | IC50 ([6]; Homo sapiens, 24 h) [µM] | IC50 ([6]; Homo sapiens, 48 h) [µM] | IC50 ([5]; 24 h) [µM] | further results
1 | COc1ccc(-c2oc3cc(O)cc(O)c3c(=O)c2OC)cc1 [ermanin] | > 50 | > 50 | > 50 | 46.7 ± 3.2 | > 50 | > 50 | > 50 | 31.8 ± 2.4 | > 50 | > 50 | 39 ± 2.9 | 33.2 ± 1.9 | – | –
2 | O=c1cc(-c2ccc(O)cc2)oc2cc(O)cc(O)c12 [apigenin, reference compound] | > 50 | 48.6 ± 3.1 | > 50 | 38 ± 2.1 | > 50 | > 50 | ~30 | ~17.9 | > 50 | 33.1 ± 2.2 | ~27 | ~14.2 | – | IC50 ([7]; Homo sapiens): 14.5 ± 1.8 µM; IC50 ([8]; 24 h): ~38 µM; IC50 ([8]; 48 h): ~10 µM
3 | O=c1cc(-c2ccc(O)c(O)c2)oc2cc(O)cc(O)c12 [luteolin, reference compound] | > 50 | > 50 | > 50 | 31.6 ± 2.9 | > 50 | > 50 | 42.8 ± 3.6 | – | > 50 | 25.9 ± 2.5 | 31.5 ± 2.5 | ~28 | – | IC50 ([7]; Homo sapiens): 8.4 ± 1.5 µM; reduction in HeLa cell viability ([8]; 20 μM luteolin, MTT assay, 48 h time point, ref Raina et al., 2021): about 50%
4 | O=c1c(O)c(-c2ccc(O)c(O)c2)oc2cc(O)cc(O)c12 [quercetin] | > 50 | > 50 | > 50 | 42.9 ± 3.8 | > 50 | > 50 | > 50 | > 50 | > 50 | 45.4 ± 4.1 | 39.1 ± 3.2 | 36.9 ± 2 | – | –
5 | N.N.[Cl][Pt][Cl] [cisplatin, reference compound] | – | – | – | – | – | – | – | – | – | – | – | – | > 50 | IC50 ([1]; 24 h): > 50 µM; IC50 ([1]; 48 h): 43.1 ± 3.5 µM; IC50 ([2]; 24 h): 28.1 ± 2 µM; IC50 ([2]; 48 h): 11.7 ± 2.2 µM; IC50 ([3]; 24 h): > 50 µM; IC50 ([3]; 48 h): 40.5 ± 4.3 µM; IC50 [7]: 17.8 ± 2.3 µM; IC50 [4, 11]: 30 ± 2.7 µM; IC50 [4, 12]: 9.4 ± 1.3 µM; IC50 ([5]; 24 h, listed as Cisplatin): > 50 µM; IC50 ([5]; 48 h): 12 ± 2 µM; IC50 ([6]; 24 h): 20 ± 2.7 µM; IC50 ([6]; 48 h): 9.7 ± 2.3 µM
6 | COc1ccc(-c2cc(=O)c3c(O)cc(OC)cc3o2)cc1 [apigenin 7,4′-O-dimethyl ether] | – | – | – | – | – | – | – | – | – | – | – | – | 26.2 ± 1.9 | IC50 ([1]; 24 h): 27.6 ± 2.8 µM; IC50 ([1]; 48 h): 7.6 ± 1.1 µM; IC50 ([2]; 24 h): > 50 µM; IC50 ([2]; 48 h): > 50 µM; effect on viability of fibroblasts [3]: significantly decreased viability; IC50 ([3]; 24 h): 18 ± 3.9 µM; IC50 ([3]; 48 h): 10.9 ± 4.6 µM; IC50 [4, 11]: > 50 µM; IC50 [4, 12]: > 50 µM; IC50 ([5]; 48 h): 20.9 ± 1.4 µM; IC50 ([6]; 24 h): > 50 µM; IC50 ([6]; 48 h): > 50 µM
7 | COc1cc(O)c2c(c1)O[C@H](c1ccc(O)cc1)CC2=O [sakuranetin] | > 50 | > 50 | > 50 | > 50 | > 50 | > 50 | > 50 | > 50 | > 50 | > 50 | > 50 | > 50 | – | IC50 ([4]; Homo sapiens, HeLa, cancer cells (HeLa and Ishikawa), MTT and neutral red uptake assays, 24 and 48 h, read-out: IC50, viability of cancer cells): > 50 µM
8 | O=c1c(O)c(-c2ccc(O)cc2)oc2cc(O)cc(O)c12 [kaempferol] | > 50 | > 50 | > 50 | > 50 | > 50 | > 50 | > 50 | > 50 | > 50 | > 50 | > 50 | 38.3 ± 2.5 | – | –
9 | COc1ccc(C2CC(=O)c3c(O)cc(OC)cc3O2)cc1 (centres unmarked) [naringenin 7,4′-O-dimethyl ether] | – | – | – | – | – | – | – | – | – | – | – | – | > 50 | IC50 ([1]; 24 h): > 50 µM; IC50 ([1]; 48 h): > 50 µM; IC50 ([2]; 24 h): > 50 µM; IC50 ([2]; 48 h): > 50 µM; IC50 ([3]; 24 h): > 50 µM; IC50 ([3]; 48 h): > 50 µM; IC50 [4, 11]: > 50 µM; IC50 [4, 12]: > 50 µM; IC50 ([4]; cancer cells (HeLa and Ishikawa), MTT and neutral red uptake assays, 24 and 48 h, read-out: IC50, viability of cancer cells): > 50 µM; IC50 ([5]; 48 h): > 50 µM; IC50 ([6]; 24 h): > 50 µM; IC50 ([6]; 48 h): > 50 µM
10 | COc1cc(O)c2c(=O)c(OC)c(-c3ccc(O)cc3)oc2c1 [kumatakenin] | 35.7 ± 2.5 | 15.3 ± 2.3 | > 50 | > 50 | 47 ± 5.6 | 42.9 ± 4.3 | > 50 | > 50 | 30.5 ± 2 | 24.2 ± 1.8 | > 50 | > 50 | – | effect on viability of fibroblasts ([3]; fibroblasts, MTT and neutral red uptake assays, 24 and 48 h): significantly decreased viability
11 | COc1cc2oc(-c3ccc(O)cc3)cc(=O)c2c(O)c1OC [cirsimaritin] | > 50 | > 50 | 34.2 ± 2.7 | 26.1 ± 2.1 | > 50 | > 50 | 36.6 ± 2.2 | 16 ± 1.9 | > 50 | 19.6 ± 2.6 | 17.5 ± 2.4 | 13.9 ± 1.4 | > 50 | –
